Consider 87 compounds from a melting point compilation (Tetko et al.; mined from patent text by program, amines drawn as free bases though some values may be those of a salt).

One may read the melting point as the temperature, or range, at which the solid turns liquid.

The compound `COC(=O)c1cc2ccnc(NS(=O)(=O)c3cccs3)c2[nH]1` returned a melting point of 159 to 160 °C.

Turning to `COc1ccc(-c2nc(/C=C/c3nccn3C)nc3cc(OC)c(OC)cc23)cc1OC`, the melting point fell in the range of 180 to 181 °C.

With `CS(=O)(=O)c1c(Cl)ccc(C(=O)O)c1Cl`, the melting point stood at 158 °C.

Consider `COc1cc(C(=O)N2CCN(C(=O)OC(C)(C)C)C(C(=O)N(C)C)C2)cc(OC)c1OC` (configuration not stated), for which the melting point is 146 to 147 °C.

As for `O=C1C(=O)c2ccc(-c3ccccc3)cc2C2=C1SCC1(CCN(CC(O)COc3ccc(Cl)cc3)CC1)O2` (configuration not stated), the melting point was in the range of 93 to 98 °C.

Compound `COc1ccc(C(=O)C2=C(c3ccccc3)c3ccccc3S2=O)cc1` (configuration not stated) came in with a melting point of 118 to 120 °C.

Take `CC(C)(C)OC(=O)N1CCc2c(cccc2C(=O)c2cc(Cl)ccc2N)C1`: the melting point fell in the range of 159 to 160 °C.

For `CC(=O)c1nn(-c2c(Cl)cc(C(F)(F)F)cc2Cl)c(N)c1S(C)=O` (configuration not stated), the melting point is 166 °C.

Take `CCC1CC(=O)N(Cc2cccc(NC(=O)C(F)(F)C(F)(F)F)c2)N=C1c1ccc(OC)c(OC2CCCC2)c1` (configuration not stated): the melting point worked out at 126 °C.

`CC(C)CNS(=O)(=O)c1cccc(NC(=O)c2cnn3c(C(F)F)cc(-c4ccc(C(F)(F)F)cc4)nc23)c1`: the melting point amounted to 186 °C.

For `O=C(O)C(=NOc1ccccc1)c1cccs1`, the melting point was determined as 86 °C.

In the case of `COc1ccc(N=c2scc(-c3ccc(Cl)c(S(=O)(=O)N(C)C)c3)n2C)cc1`, the melting point fell in the range of 198 to 199 °C.

Compound `Nc1ccc(-c2ccc(N)cc2OC(F)(F)F)c(OC(F)(F)F)c1` came in with a melting point of 67.5 to 68 °C.

In the case of `Cc1cc2cccc(OCCNCc3cccc(C4=CCCC4)c3)c2o1`, the melting point turned out to be 133 °C.

`CC(=O)NC[C@H]1CN(c2ccc(N3C[C@H]4CN(C(=O)c5cc6ccccc6[nH]5)C[C@H]4C3)c(F)c2)C(=O)O1`: the melting point is 211 °C.

`CC(C)C(=O)Oc1ccc2c(c1Cl)Sc1ccccc1N2C` gave a melting point of 147 °C.

As to `COC(=O)[C@@]1(c2ccc3ccccc3c2)CC1(c1ccccc1)c1ccccc1`, the melting point lay within 138 to 139 °C.

Consider `CCCCCCCCCCCCCCCC(=O)NCCCCCCCCCCCC(=O)O`, for which the melting point lay within 119 to 121 °C.

For `Nc1cc(Cl)cc(Nc2ncnc3[nH]cc(C(=O)c4ccccc4)c23)c1`, the melting point was greater than 300 °C.

In the case of `Clc1nc(N2CCOCC2)c2ncnc(Cl)c2n1`, the melting point lay in the range of 179 to 181 °C.

With `CCCCN(CCCC)C(=O)/C=C/c1ccc(Cn2c(-c3ccc(F)cc3)c(C)c3cc(O)ccc32)cc1`, the melting point turned out to be 180 °C.

As for `CCCCCCCCCCCCCCCCCCC(CC1(C)OCCO1)C(=O)OCC` (configuration not stated), the melting point was 33 to 34 °C.

`CC(=O)Nc1cccc(C#Cc2ccc([C@@H]3CC[C@@H]4CCCCN43)cc2)c1` (relative stereo): the melting point lay within 161 to 163 °C.

In the case of `CNC(=O)ON=C1OCCSC1(C)C`, the melting point was in the range of 67 to 68 °C.

`Nc1ncc2c(n1)-c1ccc(Cl)cc1C(c1ccccc1)=NC2` yielded a melting point of 209 to 210 °C.

`Clc1ccc2cc(OC3CCCCO3)ccc2n1` (configuration not stated) returned a melting point of 122 to 124 °C.

In turn, `COc1cc2c(cc1OC)[C@@H](c1ccc([N+](=O)[O-])cc1)NN(C1=NC(=O)CS1)[C@@H](C)C2` registered a melting point of 238 to 239 °C.

In turn, `COc1ccc2c(c1OC)OC(C)(C)CC2=O` showed a melting point of 75 to 76 °C.

Compound `CCc1ccc(N)c(CS(=O)c2nc3ccccc3[nH]2)c1` (configuration not stated) displayed a melting point of 155 to 156 °C.

Regarding `O=S(=O)(Cc1ccccc1)c1nc[nH]n1`, the melting point was 160 to 162 °C.

The compound `Cc1cccc(C)c1N(CCCc1cccnc1)C(=O)CC(C)N1C(=O)c2ccccc2C1=O` (configuration not stated) returned a melting point of 169 to 171 °C.

Regarding `CC(=O)c1ccc2c(c1)CC(NC(=O)C(F)(F)F)C2` (configuration not stated), the melting point lay in the range of 112 to 114 °C.

In turn, `COC(=O)C(C(=O)OC)N(C(N)=O)c1ccc(C=NO)cc1` displayed a melting point of 162 °C.

Take `NS(=O)(=O)c1ccc(OCCn2ccnc2)cc1`: the melting point stood at 148 °C.

`CCNc1cncc(S(=O)(=O)N(CC)CC)c1` yielded a melting point of 58 to 60 °C.

Compound `CCCCN(CCCC)C(=N)c1ccc(-c2ccc([N+](=O)[O-])cc2)o1` had a melting point of 100 to 101 °C.

Regarding `CCOC(=O)CCCCCCCCCCSc1nc(-c2ccccc2)c(-c2ccccc2)[nH]1`, the melting point fell in the range of 57 to 59 °C.

In the case of `COc1cc(C(=O)NS(=O)(=O)c2ccccc2Cl)ccc1Cn1cc(/C=C/C(=O)N2CCCC2)c2ccc(/C=C/C(=O)N3CCCC3)cc21`, the melting point lay within 291 to 293 °C.

As for `CCOC(=O)C1=C(COCCNC2=NCCS2)NC(C)=C(C(=O)OC)C1c1ccccc1Cl` (configuration not stated), the melting point lay within 145 to 147 °C.

In turn, `COc1cc(OC)c2cc(C(=O)c3ccccc3)c(=O)oc2c1` came in with a melting point of 178 to 179 °C.

With `CCCCC(=O)Nc1cccc(NC(=O)CC(C)=O)c1`, the melting point was found to be 90 °C.

`C=CCC1(CC=C)CCC(=Cc2ccc(Cl)cc2)C1(O)Cn1cncn1` (configuration not stated) showed a melting point of 128 °C.

As to `CCCC(NS(=O)(=O)c1ccc(Cl)cc1)C(=O)Nc1ccc(CC(=O)O)cc1` (racemic), the melting point lay in the range of 202 to 204 °C.

Compound `COc1cc2ncc(C#N)c(Nc3ccc(CCO)cc3)c2cc1OC` had a melting point of 208 to 210 °C.

The compound `CCNC(=O)Oc1ccc2cc(N3CC(COC)OC3=O)ccc2c1` (configuration not stated) registered a melting point of 126 to 128 °C.

On to `N#CC1=C(C2CCCCC2=O)Nc2n[nH]cc2C1c1cccc(C#N)c1Br` (configuration not stated), for which the melting point worked out at 273 °C.

Regarding `O=C(Nc1ccc(-c2ncc(-c3ccc(NC(=O)C4CCCCCC4)cc3)[nH]2)cc1)c1ccc([N+](=O)[O-])cc1`, the melting point lay within 236 to 238 °C.

As for `COc1ccc(O)c(Cl)c1O`, the melting point fell in the range of 69 to 70 °C.

In turn, `CCOc1cc2cc(CO)cc(-c3ccnc(Cl)c3)c2cc1OCC` displayed a melting point of 135 to 137 °C.

Regarding `O=C(Nc1nccs1)c1nc(-c2cccc3ccccc23)[nH]c1-c1ccccc1`, the melting point was greater than 250 °C.

`O=C(O)c1sc2cc(OCc3cccnc3)ccc2c1S(=O)c1ccccc1CO` (configuration not stated) registered a melting point of 210 °C.

Consider `Cc1c(C(=O)Nc2ccc(OCCN3CCOCC3)c(C#N)c2)cnn1-c1ccc(Cl)cc1`, for which the melting point fell in the range of 187 to 189 °C.

In turn, `NCCCNC(=O)Cn1ncc(-c2ccccc2)c1-c1ccccc1` displayed a melting point of 119 to 120 °C.

Compound `Cc1cc(-c2nc(C(F)(F)F)cn2-c2ccc(S(C)(=O)=O)c(F)c2)ccc1-c1cscn1` registered a melting point of 197 to 198 °C.

With `O=C(NNC(=O)c1occ(-c2ccccc2)c1-c1ccccc1)c1ccc(O)c(F)c1`, the melting point fell in the range of 243 to 245 °C.

Compound `CS(=O)(=O)c1ccc(-c2cnn(-c3cccc(-c4ccc(F)cc4)c3)c(=O)c2-c2ccc(F)cc2)cc1` yielded a melting point of 222 to 225 °C.

In turn, `CC12CCC3C(CCC4=CC(=O)CCC43C=O)C1CCC2=O` (configuration not stated) gave a melting point of 126 to 129 °C.

`O=C(N[C@@H]1CCNC[C@H]1O)c1ccccc1` (relative stereo) registered a melting point of 210 °C.

In turn, `C=C(C)C(=O)Nc1ccc(NC(=O)C(F)(F)C(F)(F)C(F)(F)F)c(O)c1` yielded a melting point of 247 to 250 °C.

With `COC(=O)C=Cc1ccc(C=O)cc1`, the melting point lay in the range of 82 to 84 °C.

In the case of `CC1(C)Oc2ccc(OC(F)(F)F)cc2[C@@H](NC(=O)c2ccc(Cl)cc2[N+](=O)[O-])[C@@H]1O`, the melting point fell in the range of 64 to 66 °C.

On to `CCC(NS(=O)(=O)c1ccc(Cl)c(Cl)c1)c1cnc(Oc2ccc(F)cc2)n1CC` (configuration not stated), for which the melting point turned out to be 138 °C.

The compound `COc1ccc2c(c1)Sc1cc(OC)c(Cl)cc1C(O)C2` (configuration not stated) yielded a melting point of 105 to 106 °C.

`Cc1c(NC(=O)c2cc3c(s2)CCCC3)cccc1-c1cn(C)c(=O)c(Nc2ccc(C3C(=O)N(C)CCN3C)cc2)n1` (configuration not stated) yielded a melting point of 155 to 156 °C.

`CN1CCC=C(c2nc(NC=O)sc2Cl)C1` came in with a melting point of 193 °C.

Turning to `CCOC(=O)c1c(CBr)cccc1S(N)(=O)=O`, the melting point was in the range of 138 to 140 °C.

On to `O=C=NCCC(F)(F)C(F)(F)C(F)(F)C(F)(F)C(F)(F)C(F)(F)C(F)(F)C(F)(F)C(F)(F)C(F)(F)F`, for which the melting point fell in the range of 70 to 71 °C.

`N#Cc1ccccc1Nc1ccccc1[N+](=O)[O-]`: the melting point was 134 to 138 °C.

In turn, `CS(=O)(=O)OCCc1c2ccccc2n2c1[nH]c(=O)c1ccccc12` came in with a melting point of 196 to 198 °C.

With `CC(=O)SCCNC(=O)[C@H](CS)NC(=O)C(C)C`, the melting point was 117 to 120 °C.

Turning to `Cc1nc(CC(=O)NCc2cccc3c2C(=O)N(C2CCC(=O)NC2=O)C3=O)c(C)s1` (configuration not stated), the melting point lay in the range of 140 to 142 °C.

`O=C1c2cc(F)cc(F)c2-n2c1nc1ccccc1c2=O` displayed a melting point of 287 to 290 °C.

With `CSc1nnc(-c2ccc(Cl)cc2)o1`, the melting point is 121 to 123 °C.

As for `C=C(C)C(=O)OC1CC(=O)NC1=O` (configuration not stated), the melting point is 102 °C.

For `COc1ccccc1-n1c(C(S)c2ncnc3[nH]cnc23)nc2cccc(Cl)c2c1=O` (configuration not stated), the melting point came to 237 °C.

As to `CC(C)(C)c1cc(O)cc(C(C)(C)C)c1C=C1SC(NCO)=NC1=O`, the melting point was 177 to 179 °C.

For the compound `O=C1CCC(c2ccccc2Cl)=NN1`, the melting point was in the range of 114 to 116 °C.

`CNc1nc(-c2cc(F)cc(F)c2)nc2nc(-c3ccco3)nn12` showed a melting point of 231 to 234 °C.

`O=C1N(Cc2ncccc2C(F)F)c2ccccc2C12COc1cc3c(cc12)OCCO3` (configuration not stated) displayed a melting point of 181 to 182 °C.

`CC(=O)NCc1c(O)cc2c3c(cccc13)C(=O)N(O)C2=O` had a melting point of 268 to 272 °C.

Regarding `O=C1CNC(=O)C(=Cc2cc3ccccc3s2)N1`, the melting point stood at 258 °C.

`Oc1ccc2c(ccn2Cc2ccncc2)c1` yielded a melting point of 185 to 186 °C.

On to `CCOC(=O)C1=C(C)NN=C(C(=O)OC)C1c1cccc([N+](=O)[O-])c1` (configuration not stated), for which the melting point turned out to be 176 °C.

As for `COC(=O)c1ccc(OCC(=O)c2cc3cc(Cl)ccc3o2)cc1`, the melting point was in the range of 145 to 147 °C.

`O=C1CCC(c2ccc(-n3ccc(=O)cc3)cc2)=NN1`: the melting point lay in the range of 270 to 272 °C.

The compound `CCCCCCCCCCCCCCCCOCC(O)CN1CCC(C)CC1` (configuration not stated) gave a melting point of 84 to 85 °C.

`COC(=O)c1cc(S(C)(=O)=O)c(Nc2ccc(S(F)(F)(F)(F)F)cc2)cc1C` displayed a melting point of 106 to 109 °C.
